Experimental findings from patent EP1370276B1, “INTERCELLULAR COMMUNICATION FACILITATING COMPOUNDS AND THEIR MEDICAL USE” (Zealand Pharma A/S, priority 2001, dated 2002) are described below.

In general, IC50 refers to the concentration that gives 50% inhibition.

Where a SMILES comes first, the peptide text is derived from it. [ ]: non-standard residue; d: D form. The star is where a group is joined. dTyr(3,5-I2) = N[C@H](Cc1cc(I)c(O)c(I)c1)C(=O)O; Dnp = O=[N+]([O-])c1ccc(*)c([N+](=O)[O-])c1; X1 = [N-]=[N+]=Nc1cc(O)c(C(=O)*)cc1I; Hyp = O=C(O)[C@@H]1C[C@@H](O)CN1; dHyp = O=C(O)[C@H]1C[C@H](O)CN1; Sar = CNCC(=O)O

Experiment [1] deals with calcium-induced arrythmias. As to the kind of experiment: Calcium-induced arrhythmia model in mice (time to 2nd degree AV-block). In kind it is in vivo. Also on record: CaCl2 mice Score: scale not given here. Conditions: for CaCl2 mice Score / CaCl2 mice In vivo, %: calcium chloride induced arrythmia model; for CaCl2 mice Score: no key for the score. The protocol:
The antiarrhythmic effects of compounds of this invention were tested in an in vivo model of calcium-induced arrythmias according to the model of Lynch et al. ^[37]. […]. Commercial solutions of hypnorm and midazolam were diluted 1:1 in distilled water and one part diluted Hypnorm® is mixed with one part diluted midazolam.
The anaesthesia was induced by s.c. administration in a dose of […]. An i.v. cannula was inserted into the tail vein. The lead II ECG signal was recorded continuously by positioning of a stainless steel ECG electrodes on the right forelimb and on the left hind limb. The ground electrode was placed on the right hind limb. The signal was amplified (x 5.000-10.000) and filtered (0.1-150 Hz) via a Hugo Sachs Electronic model 689 ECG module. The analogue signal was digitised via a 12 bit data acquisition board (Data Translation model DT321) and sampled at 1000 Hz using the Notocord HEM 3.1 software for Windows NT. After a 10-min equilibration period, the test sample of drug was injected into the tail vein. Mice pre-treated with vehicle were tested as a measure of the control level in untreated animals. The injection volume was 100 µl in all experiments. Infusion of CaCl2 (30 mg/ml, 0.1 ml/min ≈ 100 mg/kg/min (calciumchlorid-2-hydrat, Riedel-de Haën, Germany)) was started 3 min after i.v. administration of drug or vehicle. The time lag to onset of 2nd degree AV-block was determined as the time from the start of CaCl2 infusion until the first arrhythmic event occured. An event of 2nd degree AV-block was defined as intermittent failure of the AV conduction characterised by a P-wave without the concomitant QRS complex.
Responses were expressed relative to the time until 2nd degree AV-block occurred in vehicle treated mice.

Experiment [2] concerns CHO cells. As to the kind of experiment: In situ binding of [125I]AAP10 on intact CHO cells. Particulars: overnight at 4° C. Here is the method:
CHO cells are seeded in 24-multi well dishes in a density of 7,900 cells/cm^2 (∼ 15,000 cells/well) and grown for 3 Days In Vitro (DIV) in 1 ml/well of F-12K Nutrient Mixture supplemented with 10% Foetal Calf Serum (FCS) and 1000 units penicillin/1000 µg streptomycin (pen/strep) in an atmosphere of 5% CO2 and 100% humidity at 37° C. The cell density has at that time increased to 295,000 cells/cm^2 (152 pgprot/cell ∼ 85 µgprot/well).
On the day of analysis cells are removed from the incubator and each well is washed twice with, depending on the experiment, either 2 ml pre-warmed (37 °C) or ice-cold (0 °C) D-PBS to remove serum. It is important to keep the period to a minimum during which cells are left without physiological solutions to avoid that they dry out during washing procedures. The cold washed cells are used directly for binding assays while the warm washed cells are used for experiments with glucose and oxygen deprivation.
The in situ binding is performed by a modified protocol based on the description by Koenig. […] Cells incubate overnight at 4° C to reach equilibrium. Each well, one at the time, is then rinsed rapidly with 2 x 1 ml D-PBS and left to dry.
0.25 ml of 0.5 % Triton-X-100 (v/v) is added to each well and cells left for at least 1 h to solubilize. The extract is transferred to counting vials, the wells rinsed with 0.25 ml water and the rinse extract added to the corresponding vials. The vials are counted in a γ-counter. Table 3. In situ binding, IC50 (nM).

As to H-DY-DN-G-NH2, the “CaCl2 mice Score” value in experiment [1] is reported as 1.

With H-GAGGPY-NH2 [H-GAGGPY-NH2], in experiment [1], the “CaCl2 mice Score” value is 2. On to AcGNY, for which, in experiment [1], the “CaCl2 mice In vivo, %” value is given as 46 +/- 9% and the “CaCl2 mice Score” value is recorded as 2. The matching figures for HPP-PHypGAGKKKKKK-NH2: 21 +/- 17% and 1. In the same order, the values of `C[C@H](NC(=O)CN)C(=O)N(C)CC(=O)N1C[C@H](O)C[C@H]1C(=O)N1CCC[C@H]1C(=O)N[C@@H](Cc1ccc(O)cc1)C(N)=O` [H-GA-Sar-Hyp-PY-NH2] (H-GA[Sar][Hyp]PY-NH2) are 46 +/- 11% and 2. In the case of CF3C(O)-AAP10-NH2, the “CaCl2 mice Score” value in experiment [1] worked out at 3. Same read-out and setting: to `CC(=O)N[C@@H](Cc1ccc(O)cc1)C(=O)N1CCC[C@H]1C(=O)N1C[C@H](O)C[C@H]1C(=O)NCC(=O)N[C@@H](C)C(=O)NCC(=O)O` [Compound 1, Ac-Tyr-Pro-4Hyp-Gly-Ala-Gly-OH] (Ac-YP[Hyp]GAG-OH) belongs 1; to `C[C@H](NC(=O)CN)C(=O)N[C@@H](CC(N)=O)C(=O)N[C@@H](Cc1ccc(O)cc1)C(N)=O` [H-GANY-NH2] (H-GANY-NH2), 1. In turn, `C[C@H](NC(=O)CNC(=O)[C@@H]1C[C@@H](O)CN1C(=O)[C@@H]1CCCN1C(=O)c1cc(I)c(N=[N+]=[N-])cc1O)C(=O)NCC(N)=O` [Compound 32] (X1-P[Hyp]GAG-NH2) gave a half-inhibitory concentration (IC50) in experiment [2] of 0.5 nM. Take H-GAG-DHyp-DProY-NH2: in experiment [1], the “CaCl2 mice In vivo, %” value is given as 49 +/- 6% and the “CaCl2 mice Score” value stood at 2. The molecule `CC(=O)N[C@H](Cc1cc(I)c(O)c(I)c1)C(=O)N1CCC[C@@H]1C(=O)N1C[C@@H](O)C[C@@H]1C(=O)NCC(=O)N[C@H](C)C(=O)NCC(N)=O` [Compound 24] (Ac-[dTyr(3,5-I2)][dP][dHyp]G[dA]G-NH2) yielded an IC50 in experiment [2] of 65 nM.

Regarding `NCC(=O)N[C@H](CC(N)=O)C(=O)N[C@@H](Cc1ccc(O)cc1)C(N)=O` [H-G-DN-Y-NH2] (H-Gly-[dN]-Tyr-NH2), the “CaCl2 mice Score” value in experiment [1] is on record as 2.

Turning to des-Hyp^4-[Asn^5]AAP-10-NH2, in experiment [1], the “CaCl2 mice In vivo, %” value is 53 +/- 15% and the “CaCl2 mice Score” value came to 2.

For `CC(=O)NCC(=O)N[C@@H](CC(=O)O)C(=O)N[C@@H](CC(N)=O)C(=O)N[C@@H](Cc1ccc(O)cc1)C(N)=O` [Ac-G-D-N-Y-NH2] (Ac-GDNY-NH2), in experiment [1], the “CaCl2 mice Score” value was found to be 1. On to `C[C@H](NC(=O)CNC(=O)[C@H](CC(N)=O)NC(=O)[C@H](Cc1ccc(O)cc1)NC(=O)[C@@H]1CCCN1C(=O)[C@@H]1C[C@@H](O)CN1)C(=O)NCC(N)=O` [H-HypPYNGAG-NH2] (H-[Hyp]PYNGAG-NH2), for which, in experiment [1], the “CaCl2 mice In vivo, %” value was 34 +/- 10% and the “CaCl2 mice Score” value came to 2. Turning to `NC(=O)C[C@@H](NC(=O)[C@@H](N)Cc1ccc(O)cc1)C(=O)NCC(=O)O` [H-Y-DN-G-OH] (H-Tyr-[dN]-Gly-OH), the “CaCl2 mice Score” value in experiment [1] is 2. In the case of Cyclo(retro-AAP-10-Asn), in experiment [1], the “CaCl2 mice In vivo, %” value is on record as 59 +/- 9% and the “CaCl2 mice Score” value amounted to 2. Turning to `C[C@H](NC(=O)CN)C(=O)NCC(=O)N1C[C@H](O)C[C@H]1C(=O)N1CCC[C@H]1C(=O)N[C@@H](Cc1ccc(O)cc1)C(=O)N[C@@H](CC(N)=O)C(N)=O` [H-AAP-10-Asn-NH2] (H-GAG[Hyp]PYN-NH2), the “CaCl2 mice Score” value in experiment [1] is 2. On the same count and under the same terms, then `NCC(=O)N[C@@H](CCCCNc1ccc([N+](=O)[O-])cc1[N+](=O)[O-])C(=O)N[C@@H](Cc1ccc(O)cc1)C(N)=O` [H-GK(DNP)Y-NH2] (H-Gly-Lys(Dnp)-Tyr-NH2), with 1. Consider HPP-PHypGAGKKKKKK-OH, for which, in experiment [1], the “CaCl2 mice In vivo, %” value is reported as 80 +/- 17% and the “CaCl2 mice Score” value amounted to 3. On to `CC(=O)N[C@@H](Cc1ccc(O)cc1)C(=O)N[C@H](CC(N)=O)C(=O)NCC(=O)O` [Ac-Y-DN-G-OH] (Ac-Tyr-[dN]-Gly-OH), for which, in experiment [1], the “CaCl2 mice Score” value is 2. For H-AAP-10-K6-OH, in experiment [1], the “CaCl2 mice In vivo, %” value is given as 64 +/- 10% and the “CaCl2 mice Score” value turned out to be 3. With “3-(4-hyd roxyphenyl)propionyl-Pro-Hyp-Gly-Ala-Gly-OH [HP5, reference compound]”, in experiment [1], the “CaCl2 mice Score” value was determined as 2. Also, in experiment [1] (maximal effect, increase in time until 2nd degree AV-block relative to vehicle, i.v.), the In vivo activity result is on record as “++ (++ refers to 30-50% increase in time until arrhythmia)”. For `CC(=O)N[C@@H](Cc1ccc(O)cc1)C(=O)N[C@@H](CC(=O)O)C(=O)N[C@@H](CC(N)=O)C(=O)NCC(N)=O` [Ac-Y-D-N-G-NH2] (Ac-YDNG-NH2), the “CaCl2 mice Score” value in experiment [1] was 1. Still for that read-out and setting: to [Pro^4]AAP10-NH2 belongs 3. On the same count and under the same terms, then `NCC(=O)NCC(=O)N[C@@H](Cc1ccc(O)cc1)C(N)=O` [H-GGY-NH2] (H-Gly-Gly-Tyr-NH2), with 2. `C[C@H](NC(=O)CN)C(=O)NCC(=O)N1CCC[C@@H]1C(=O)N[C@@H](C)C(=O)N[C@@H](Cc1ccc(O)cc1)C(N)=O` [H-[D-Pro^4, Ala^5]AAP-10-NH2] (H-GAG[dP]AY-NH2): in experiment [1], the “CaCl2 mice In vivo, %” value was 29 +/- 12% and the “CaCl2 mice Score” value is 1. As for `NC(=O)CNC(=O)[C@H](CC(N)=O)NC(=O)[C@@H](N)Cc1ccc(O)cc1` [H-YNG-NH2] (H-Tyr-Asn-Gly-NH2), the “CaCl2 mice Score” value in experiment [1] was found to be 2. For GNY, in experiment [1], the “CaCl2 mice In vivo, %” value is recorded as 58 +/- 10% and the “CaCl2 mice Score” value amounted to 2. Consider `CNCC(=O)N[C@@H](C)C(=O)N(C)CC(=O)N1C[C@H](O)C[C@H]1C(=O)N1CCC[C@H]1C(=O)N[C@@H](Cc1ccc(O)cc1)C(N)=O` [H-Sar-A-Sar-Hyp-PY-NH2] (H-[Sar]A[Sar][Hyp]PY-NH2), for which, in experiment [1], the “CaCl2 mice In vivo, %” value is 24 +/- 7% and the “CaCl2 mice Score” value was determined as 1. The matching figures for H-GAG-DHypAY-NH2: 29 +/- 9% and 1.

As for H-[D-Hyp^4]AAP-10-NH2, in experiment [1], the “CaCl2 mice In vivo, %” value is given as 28 +/- 10% and the “CaCl2 mice Score” value was 1.
